Measured values as given in US9789102B2, “H3 receptor antagonist for use in the treatment of alzheimer's disease” (SANOFI, priority 2012, dated 2017).

System: protein tau hyperphosphorylation on AT-8 (pSer199-202/Thr205) epitope
Experiment: AT8 immunohistochemistry with quantitative image analysis after six months in food
Format: in vivo, THY-Tau22 mice
Details: for protein tau phosphorylation on AT-8 epitope in cortex, vs vehicle: n=9; for decrease of the number of AT8-positive neuronal cells, cortex: significant
From the text: 2-(Cyclohexylmethyl)-N-{2-[(2S)-1-methylpyrrolidin-2-yl]ethyl}-1,2,3,4-tetrahydroisoquinoline-7-sulfonamide difumarate monohydrate was administrated as a supplement in food at doses of 0.00034%, 0.0034% and 0.034% for six months in THY-Tau22 and wild type mice as follows: • Tg Veh (n=17) • Tg Active Ingredient—0.034% (n=17) • Tg Active Ingredient—0.0034% (n=17) • Tg Active Ingredient—0.00034% (n=17) • WT Veh (n=17) • WT Active Ingredient—0.034% (n=17) • WT Active Ingredient—0.0034% (n=17) • WT Active Ingredient—0.00034% (n=17) • WT groups treated with Active Ingredient are not used in the biochemical and histological studies.
After mice were decapitated, brains were removed and one hemibrain (used for histopathological studies) was immersion-postfixed for seven days at 4° C. with 4% formaldehyde (Carlo Erba/code 415691). The other hemibrain was prepared for biochemical quantitative measurements.
Post-fixed hemibrains were incubated in phosphate-buffered saline (PBS, P 3813-10PAK, Sigma), transferred to a 20% sucrose solution (code 27480.294—Prolabo) for 48 hours at 4° C. to ensure good cryopreservation of tissues during subsequent freezing. For freezing, hemibrains were immersed for one minute in isopentane solution (Ref. No. 24872-323—Prolabo) cooled with dry ice to between −25° C. and −30° C. and then stored at −25° C.
The entire hemibrains were cut with a cryostat (Microm, HM560). Serial sagittal brain tissue sections were collected onto Superfrost plus microscope glass slides (VWR) and then stored at −20° C. (sections of 20 μm of thickness), or placed in PBS-sodium azide 0.1% (S-2002, Sigma) containing wells to avoid any contamination and stored at 4° C. (sections of 30 μm of thickness).
Hyperphosphorylated microtubule-associated protein tau is the major component of the paired helical filament. Phosphorylation-dependent anti-tau antibodies can be used to identify specific amino acids that are phosphorylated in tau from normal brain and AD brain. For example, the monoclonal antibody, AT8, is widely used. Antibody that can detect the phosphorylated serine 202 and the phosphorylated threonine 205 epitopes of phosphorylated tau (AT8 epitope (M. Goedert et al., Neuroscience Letters, (1995) 189, 3, pp. 167-169)).
An immunohistochemical protocol using the AT8 antibody and based upon the avidin-biotin horseradish peroxidase method was applied on 30 μm free-floating sections. The detailed protocol is as follows:
The following reagents are used: 0.1M PBS buffer in 1 liter of H2O (2.23 g of NaH2PO4, 2H2O (Prolabo Ref. No. 33 616.262), 29 g of Na2HPO4, 12 H2O (Prolabo Ref. No. 28 028.298), 9 g of NaCl (Prolabo Ref. No. 27 810.295)); PBS-Triton (0.15%) buffer Triton×100 (Sigma Ref. No. 23 479-9) (PBS-T) (1 l of 0.1M PBS buffer, 1.5 ml of Triton); 0.2M PBS buffer in 1 liter of H2O (4.46 g of NaH2PO4, 2H2O, 58 g of Na2HPO4, 12H2O, 18 g of NaCl); 30% H2O2 (Sigma Ref. No. H 1009); 3,3′-diaminobenzidine tetrahydrochloride (Sigma Ref. No. D9015, 100 mg stored at −20° C.); Vectastain® ABC Kit (Ref. No. PK 4000, Vector); BSA: bovine serum albumin (Sigma Ref. No. A8022).
Sections were preincubated for 3×10 minutes in 0.1 M-PBS-0.15% triton solution and then in 0.1M-PBS-1.5% hydrogen peroxide-50% methanol at room temperature for 30 minutes. After 3 washings in 0.1 M-PBS-0.15% triton, they were further incubated in blocking buffer [i.e., in BSA diluted at 10% in 0.01 M PBS] for 30 minutes. They were incubated at room temperature overnight with mouse anti-human PHF-Tau monoclonal antibody (clone AT8, Thermo Science, MN1020, dilution 1/500 in 0.1M PBS-0.05% Triton) and then with the secondary antibody (anti-mouse IgG biotinylated whole antibody from goat, Amersham, RPN1177, dilution 1/500 in 0.1M PBS-0.05% Triton) for 1 h 30. They were finally incubated in peroxidase-coupled avidin complex (Vectastain ABC kit, Vector Laboratories, dilution 1/400 in 0.1M PBS) for 30 minutes. […]

Compound: CN1CCC[C@H]1CCNS(=O)(=O)c1ccc2c(c1)CN(CC1CCCCC1)CC2 [2-(cyclohexylmethyl)-N-{2-[(2S)-1-methylpyrrolidin-2-yl]ethyl}-1,2,3,4-tetrahydroisoquinoline-7-sulfonamide difumarate monohydrate]
- protein tau phosphorylation on AT-8 epitope in cortex, vs vehicle (0.0034% in food, six months): statistical significant decrease
- intensity of AT8-immunostaining within neuronal cell bodies and fibers, cortex (0.0034% in food, six months, qualitatively observed): decrease
- decrease of the number of AT8-positive neuronal cells, cortex (0.0034% in food, six months): −47%
- protein tau phosphorylation on AT-8 epitope in cortex, vs vehicle (0.034% in food, six months): statistical significant decrease
- decrease of the number of AT8-positive neuronal cells, cortex (0.034% in food, six months): −32%
- AT8-positive neuronal cell number in other ROIs (amygdala, CA1 and dentate gyrus hippocampal subareas) (six months in food): No significant decrease
